Assay results from US11230538B2, “Herbicides” (SYNGENTA PARTICIPATIONS AG, priority 2016, dated 2022).

Tests used:
Assay type in all cases: in vivo
[1] = system: Alopecurus myosuroides (ALOMY); assay: B1 Pre-emergence herbicidal activity; parameters: key: 5=total damage to plant; 0=no damage to plant; details: pre-emergence application, rate 1000 g/ha, evaluated after 13 days
Summary of the method: (§1)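 Sow in soil → 1 d glasshouse (24/16 °C, 14 h light, 65% RH) → spray pre-emergence (acetone/water 50:50, 0.5% Tween 20) → grow 13 d, water twice daily → score 0–5 (5 = total damage).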

Avena fatua (AVEFA) [2] = assay: B1 Pre-emergence herbicidal activity; parameters: key: 5=total damage to plant; 0=no damage to plant; details: pre-emergence application, rate 1000 g/ha, evaluated after 13 days
Summary of the method: as §1

[3] = system: Triticum aestivium (TRZAW); assay: B1 Pre-emergence herbicidal activity; parameters: key: 5=total damage to plant; 0=no damage to plant; details: pre-emergence application, rate 1000 g/ha, evaluated after 13 days
Summary of the method: as §1

[4] = system: Echinochloa crus-galli (ECHCG); assay: B1 Pre-emergence herbicidal activity; parameters: key to Pre-emergence herbicidal activity, ECHCG (damage score 0-5): 5=total damage to plant; 0=no damage to plant; details: pre-emergence application, rate 1000 g/ha, evaluated after 13 days
Summary of the method: as §1

Lolium perenne (LOLPE) [5] = assay: B1 Pre-emergence herbicidal activity; parameters: key to Pre-emergence herbicidal activity, LOLPE (damage score 0-5): 5=total damage to plant; 0=no damage to plant; details: pre-emergence application, rate 1000 g/ha, evaluated after 13 days
Summary of the method: as §1

Setaria fabenr (SETFA) = assay: B1 Pre-emergence herbicidal activity; parameters: key to Pre-emergence herbicidal activity, SETFA (damage score 0-5): 5=total damage to plant; 0=no damage to plant; details: pre-emergence application, rate 1000 g/ha, evaluated after 13 days
Summary of the method: as §1

Avena fatua (AVEFA) [6] = assay: B2 Post-emergence herbicidal activity; details: post-emergence application, rate 1000 g/ha, evaluated after 13 days
Summary of the method: (§2)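 Test seeds are sown in standard soil and raised for 8 days under controlled glasshouse conditions (24/16 °C, 14 h light, 65% humidity). Foliage is then sprayed with compound formulated in 50:50 acetone/water plus 0.5% Tween 20, and plants are rated 0–5 for damage after 13 days.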

[7] = system: Echinochloa crus-galli (ECHCG); assay: B2 Post-emergence herbicidal activity; parameters: key to Post-emergence herbicidal activity, ECHCG (damage score 0-5): 5=total damage to plant; 0=no damage to plant; details: post-emergence application, rate 1000 g/ha, evaluated after 13 days
Summary of the method: as §2

Lolium perenne (LOLPE) [8] = assay: B2 Post-emergence herbicidal activity; details: post-emergence application, rate 1000 g/ha, evaluated after 13 days
Summary of the method: as §2

[9] = system: Alopecurus myosuroides (ALOMY); assay: B2 Post-emergence herbicidal activity; parameters: key: 5=total damage to plant; 0=no damage to plant; details: post-emergence application, rate 1000 g/ha, evaluated after 13 days
Summary of the method: as §2

Setaria fabenri (SETFA) = assay: B2 Post-emergence herbicidal activity; parameters: key: 5=total damage to plant; 0=no damage to plant; details: post-emergence application, rate 1000 g/ha, evaluated after 13 days
Summary of the method: as §2

[10] = system: Triticum aestivium (TRZAW); assay: B2 Post-emergence herbicidal activity; parameters: key: 5=total damage to plant; 0=no damage to plant; details: post-emergence application, rate 1000 g/ha, evaluated after 13 days
Summary of the method: as §2

| SMILES | Pre-emergence herbicidal activity, ALOMY (damage score 0-5) [1] | Pre-emergence herbicidal activity, AVEFA (damage score 0-5) (Avena fatua (AVEFA) [2]) | Pre-emergence herbicidal activity, TRAZW (damage score 0-5) [3] | Pre-emergence herbicidal activity, ECHCG (damage score 0-5) [4] | Pre-emergence herbicidal activity, LOLPE (damage score 0-5) (Lolium perenne (LOLPE) [5]) | Pre-emergence herbicidal activity, SETFA (damage score 0-5) (Setaria fabenr (SETFA)) | Post-emergence herbicidal activity, AVEFA (damage score 0-5) (Avena fatua (AVEFA) [6]) | Post-emergence herbicidal activity, ECHCG (damage score 0-5) [7] | Post-emergence herbicidal activity, LOLPE (damage score 0-5) (Lolium perenne (LOLPE) [8]) | Post-emergence herbicidal activity, ALOMY (damage score 0-5) [9] | Post-emergence herbicidal activity, SETFA (damage score 0-5) (Setaria fabenri (SETFA)) | Post-emergence herbicidal activity, TRAZW (damage score 0-5) [10] |
| --- | --- | --- | --- | --- | --- | --- | --- | --- | --- | --- | --- | --- |
| O=C(Nc1ccc(-c2cncc(F)c2)nc1C(F)(F)F)c1cc(F)c(F)cc1F [Compound C33] | 0 | 1 | 0 | 1 | 1 | 2 | 2 | 2 | 1 | 0 | 3 | 0 |
| CC(C)(C)C(=O)Nc1ccc(-c2cncc(F)c2)nc1C(F)(F)F [Compound C34] | 0 | 0 | 0 | 2 | 0 | 5 | 3 | 4 | 2 | 1 | 5 | 1 |
| O=C(CCl)Nc1ccc(-c2cncc(F)c2)nc1C(F)(F)F [Compound C35] | 0 | 1 | 0 | 4 | 1 | 4 | 3 | 5 | 2 | 0 | 5 | 0 |
| CC(=O)OC(C)(C)C(=O)Nc1ccc(-c2cncc(F)c2)nc1C(F)(F)F [Compound C36] | 0 | 1 | 0 | 4 | 1 | 4 | 2 | 5 | 1 | 0 | 5 | 1 |
| CC(C)=CC(=O)Nc1ccc(-c2cncc(F)c2)nc1C(F)(F)F [Compound C37] | 0 | 1 | 0 | 4 | 1 | 5 | 3 | 5 | 2 | 0 | 5 | 0 |
| CC(C)=CC(=O)N(C(=O)C=C(C)C)c1ccc(-c2cncc(F)c2)nc1C(F)(F)F [Compound C38] | 0 | 0 | 0 | 4 | 0 | 5 | 3 | 4 | 2 | 0 | 5 | 0 |
| C=CCN(C(=O)CC)c1ccc(-c2cncc(F)c2)nc1C(F)(F)F [Compound C39] | 0 | 2 | 0 | 4 | 1 | 5 | 3 | 5 | 2 | 0 | 5 | 1 |
| CCOC(=O)CC(=O)Nc1ccc(-c2cncc(F)c2)nc1C(F)(F)F [Compound C42] | 0 | 2 | 0 | 4 | 1 | 4 | 4 | 5 | 2 | 0 | 5 | 1 |
| CCC(=O)N(C(=O)CC)c1ccc(-c2cncc(F)c2)nc1C(F)(F)F [Compound C44] | 0 | 2 | 0 | 5 | 1 | 4 | 3 | 5 | 3 | 1 | 5 | 0 |
| O=C(Nc1ccc(-c2cncc(F)c2)nc1C(F)(F)F)c1ccccn1 [Compound C45] | 0 | 2 | 0 | 5 | 1 | 4 | 2 | 5 | 2 | 0 | 5 | 1 |
| O=C(Nc1ccc(-c2cncc(F)c2)nc1C(F)(F)F)c1ccccc1F [Compound C46] | 0 | 1 | 0 | 2 | 1 | 4 | 2 | 3 | 1 | 0 | 4 | 0 |
| O=C(Nc1ccc(-c2cncc(F)c2)nc1C(F)(F)F)c1cccs1 [Compound C47] | 1 | 2 | 0 | 5 | 1 | 4 | 4 | 5 | 3 | 1 | 5 | 0 |
